Calls of active or inactive are those of the source. For most assays here, no stated cut-off is given here; in the data, actives have a measured EC50 and inactives only a lower limit.
Columns and labels:
[1] = target: Luciferin 4-monooxygenase (Photinus pyralis, UniProt P08659); test: inhibition of purified Photinus pyralis luciferase – biochemical, luminescence, dose response (AID 1891)
[2] = Luminescence Cell-Based Dose Confirmation HTS to Identify Inhibitors of Platelet Dense Granule Release. [Related pubchem assays: 1663 (Primary HTS), 1678 (Summary of Project)]; assay type: functional
[3] = target: T1, Heat shock factor protein 1 (Mus musculus, UniProt P38532); test: enhancement of HSF1-driven luciferase signal – cell-based, NIH3T3, luminescence, dose retest, confirmation (AID 435004); assay type: functional;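 further: stress induced by proteasome inhibitor MG132 added 30 min after compound; luciferase reporter driven by HSF1 response element in NIH3T3 cells; actives raise luminescence as potentiators of the MG132 stress response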
T1 sequence (P38532 whole entry): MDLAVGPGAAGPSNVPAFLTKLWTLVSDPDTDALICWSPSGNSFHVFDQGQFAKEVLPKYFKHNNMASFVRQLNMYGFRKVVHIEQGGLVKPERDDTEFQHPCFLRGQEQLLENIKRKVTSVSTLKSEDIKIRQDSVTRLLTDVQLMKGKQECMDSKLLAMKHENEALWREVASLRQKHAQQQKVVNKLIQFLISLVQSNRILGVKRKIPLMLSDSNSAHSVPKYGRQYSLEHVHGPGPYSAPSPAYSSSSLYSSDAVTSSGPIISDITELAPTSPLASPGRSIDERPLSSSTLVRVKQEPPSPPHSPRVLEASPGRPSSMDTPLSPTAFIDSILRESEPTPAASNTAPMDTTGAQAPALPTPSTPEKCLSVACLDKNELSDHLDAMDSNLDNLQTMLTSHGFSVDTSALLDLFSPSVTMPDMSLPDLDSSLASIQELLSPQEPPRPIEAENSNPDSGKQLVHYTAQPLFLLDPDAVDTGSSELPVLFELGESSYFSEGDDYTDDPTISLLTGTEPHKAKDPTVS

[4] = luciferase reporter signal suppression in cells – H4 neuroglioma cells, luminescence, dose response (AID 1990); assay type: functional, cell-based
[5] = fluconazole-exposed Candida albicans growth modulators – fluorescence, retest, confirmation (AID 2467); assay type: functional, cell-based
[6] = NIH-3T3 fibroblast cytotoxicity, dose response, cytotoxicity control, cell-based, fluorescence, Alamar Blue, secondary assay (AID 2327); assay type: functional;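 further: NIH-3T3 mouse fibroblasts cultured with fluconazole at 8 µg/mL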
[7] = Luminescence Cell-Based Dose Response HTS to Identify Inhibitors of 5'UTR Stem-Loop Driven Prion Protein mRNA Translation in H4 Neuroglioblastoma Cells. [Related pubchem assays: 1827 (Project Summary), 1813 (Primary HTS)]; assay type: functional
[8] = alpha-synuclein stem-loop luciferase translation blockers – H4 neuroglioma cells, luminescence, confirmation (AID 1988); assay type: functional, cell-based
[9] = target: T2, Polyadenylate-binding protein 1 (Homo sapiens, UniProt P11940); test: MLLE domain peptide-binding blockers, IC50 – biochemical, fluorescence polarization, FITC-PAM2 peptide, dose response (AID 602259); assay type: functional; details: read-out: IC50_Mean
T2 sequence (P11940 whole entry, the tested form may be a part): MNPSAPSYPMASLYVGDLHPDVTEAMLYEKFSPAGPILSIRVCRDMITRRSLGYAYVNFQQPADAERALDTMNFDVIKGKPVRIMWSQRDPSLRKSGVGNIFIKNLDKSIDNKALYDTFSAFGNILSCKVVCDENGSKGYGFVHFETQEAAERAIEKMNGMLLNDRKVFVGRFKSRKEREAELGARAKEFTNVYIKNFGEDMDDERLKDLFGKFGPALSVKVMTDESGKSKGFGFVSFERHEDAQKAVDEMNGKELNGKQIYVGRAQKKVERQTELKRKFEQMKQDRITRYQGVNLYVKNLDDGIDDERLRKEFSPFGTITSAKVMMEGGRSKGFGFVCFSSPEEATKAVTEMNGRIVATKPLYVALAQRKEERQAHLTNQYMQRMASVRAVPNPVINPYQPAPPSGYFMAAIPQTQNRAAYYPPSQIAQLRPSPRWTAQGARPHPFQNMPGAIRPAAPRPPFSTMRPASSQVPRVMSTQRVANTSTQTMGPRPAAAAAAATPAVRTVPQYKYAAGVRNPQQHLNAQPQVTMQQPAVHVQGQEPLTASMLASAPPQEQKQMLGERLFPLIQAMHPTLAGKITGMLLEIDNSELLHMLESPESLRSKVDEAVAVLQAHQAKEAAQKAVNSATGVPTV

[10] = target: T2, Polyadenylate-binding protein 1; test: MLLE binding blockers, Cy5 peptide tracer – biochemical, fluorescence polarization, Cy5-PAM2 peptide, secondary, miRNA deadenylation inhibitor project, dose response (AID 602260); assay type: functional; details: read-out: IC50_Mean
[11] = test system: INS1; test: INS-1E survival protection against cytokine death – cell-based, luminescence, retest, dose response (AID 449756); assay type: functional; details: Rattus norvegicus;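 further: cell death triggered by IL-1 beta plus TNF-alpha plus IFN-gamma mixture; protective hits raise ATP signal compared with cytokine alone wells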
[12] = test system: Vero; test: cells; assay type: functional; details: Chlorocebus sabaeus
[13] = test system: Streptococcus; test: GAS UMAA2166 growth inhibition – luminescence, BacTiterGlo, counter-screen for streptokinase expression inhibitor project, dose response (AID 1915); assay type: functional, organism-based;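 further: potency for reduction of bacterial viability or growth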
[14] = target: T3, Streptokinase A (Streptococcus pyogenes serotype M1, UniProt P10520); test: viability-normalized secreted streptokinase activity reduction – plasminogen activation absorbance, OD405, dose response (AID 1914); assay type: functional, Streptococcus pyogenes M1 GAS;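 further: secreted streptokinase activity via plasminogen activation per viability signal from cell pellet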
T3 sequence (P10520 whole entry): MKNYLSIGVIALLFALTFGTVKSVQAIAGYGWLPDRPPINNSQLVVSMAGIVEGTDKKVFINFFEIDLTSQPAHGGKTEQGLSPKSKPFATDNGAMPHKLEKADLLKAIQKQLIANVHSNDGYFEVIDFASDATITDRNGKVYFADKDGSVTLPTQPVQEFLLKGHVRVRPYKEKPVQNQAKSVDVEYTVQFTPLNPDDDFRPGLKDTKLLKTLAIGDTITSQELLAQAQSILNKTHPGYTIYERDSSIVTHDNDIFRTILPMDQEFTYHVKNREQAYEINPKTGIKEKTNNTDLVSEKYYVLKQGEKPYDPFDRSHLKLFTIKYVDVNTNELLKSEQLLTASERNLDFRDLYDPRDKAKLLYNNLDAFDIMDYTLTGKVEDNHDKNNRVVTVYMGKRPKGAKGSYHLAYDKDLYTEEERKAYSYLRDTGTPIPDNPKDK

[15] = Luminescence Cell-Based Dose Retest to Confirm Inhibitors of Cancer Stem Cells. [Related pubchem assays (depositor defined):AID2717, AID2721]; assay type: functional; details: Homo sapiens
[16] = test system: Streptococcus sp. 'group A'; test: Streptococcus pyogenes SK(-)GAS viability under kanamycin – luminescence, BacTiterGlo, confirmation, counter-screen for streptokinase expression inhibitor project, dose response (AID 1900); assay type: functional, organism-based
[17] = test system: H4; test: Luminescence Cell-Based Dose Response HTS to Identify Activators of 5'UTR Stem-Loop Driven Prion Protein mRNA Translation in H4 Neuroglioblastoma Cells. [Related pubchem assays: 1829 (Project Summary), 1814 (Primary HTS)]; assay type: functional; details: Homo sapiens
[18] = Luminescence Cell-Based Dose Response HTS to Identify Activators of Luciferase Translation or Activity in H4 […] Cells. [Related pubchem assays: 1829 (Project Summary), 1814 (Primary HTS)]; assay type: functional
[19] = Luminescence Cell-Based Dose Confirmation HTS to Identify Activators of 5'UTR Stem-Loop Driven Alpha-Synuclein mRNA Translation in H4 Neuroglioblastoma Cells. [Related pubchem assays: 1829 (Project Summary), 1814 (Primary HTS)]; assay type: functional
[20] = test system: BJ; test: cells; assay type: functional, cell-based; details: Homo sapiens
[21] = test system: BJ; test: BJ-TERT-LT-ST fibroblast viability loss – cell-based, RAS-independent, luminescence, dose response (AID 1935); assay type: functional; details: Homo sapiens;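 further: BJ fibroblasts immortalized with TERT plus LT and ST oncogenes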
[22] = DRD fibroblast viability loss – cell-based, non-viral oncogenic, luminescence, dose response (AID 1934); assay type: functional; details: Homo sapiens
[23] = test system: BJ; test: BJ-TERT fibroblast viability loss – cell-based, RAS-independent, luminescence, dose response (AID 1933); assay type: functional; details: Homo sapiens
[24] = target: FAD-linked sulfhydryl oxidase ALR (Homo sapiens, UniProt P55789); test: ALR-catalysed DTT oxidation blockers – biochemical, H2O2 detection, luminescence, cherry-pick, dose response (AID 493248)
Sequence of FAD-linked sulfhydryl oxidase ALR (P55789 whole entry): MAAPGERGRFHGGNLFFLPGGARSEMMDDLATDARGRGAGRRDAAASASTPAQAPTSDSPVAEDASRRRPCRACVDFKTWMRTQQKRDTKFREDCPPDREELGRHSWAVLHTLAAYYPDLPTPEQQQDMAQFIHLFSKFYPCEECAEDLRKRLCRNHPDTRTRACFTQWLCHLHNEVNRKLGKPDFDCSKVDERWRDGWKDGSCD

[25] = target: T1, Heat shock factor protein 1; test: decrease of HSF1-responsive luciferase luminescence – cell-based, NIH3T3, dose retest, confirmation (AID 2382); assay type: functional;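 further: NIH3T3 fibroblasts with HSF1-driven luciferase reporter stressed by proteasome inhibitor MG132; luminescence from HSF1-driven luciferase expression after 8 hours of MG132 stress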
[26] = target: Paired box protein Pax-8 (Homo sapiens, UniProt Q06710); test: PAX8 transcriptional activity inhibition in RMG-I – RMG-I cells, luciferase, cherry-pick, dose response (AID 687027); assay type: functional, cell-based;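 further: luciferase reporter driven by Pax8 target thyroperoxidase promoter measured by SteadyGlo luminescence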
Sequence of Paired box protein Pax-8 (Q06710 whole entry): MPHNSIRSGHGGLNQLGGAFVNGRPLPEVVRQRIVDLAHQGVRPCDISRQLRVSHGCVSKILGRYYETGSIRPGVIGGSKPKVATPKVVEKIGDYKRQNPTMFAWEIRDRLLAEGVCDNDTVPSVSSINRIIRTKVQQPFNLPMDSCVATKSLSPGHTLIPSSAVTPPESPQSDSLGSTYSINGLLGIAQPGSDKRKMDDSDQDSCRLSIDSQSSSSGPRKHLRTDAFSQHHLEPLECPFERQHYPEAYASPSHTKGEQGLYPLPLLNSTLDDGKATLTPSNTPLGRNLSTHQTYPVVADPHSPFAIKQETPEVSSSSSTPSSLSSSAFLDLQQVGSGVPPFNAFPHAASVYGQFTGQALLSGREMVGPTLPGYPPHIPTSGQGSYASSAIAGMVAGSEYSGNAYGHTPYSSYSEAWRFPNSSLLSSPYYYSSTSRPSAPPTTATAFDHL

Sequence of Luciferin 4-monooxygenase (P08659 whole entry): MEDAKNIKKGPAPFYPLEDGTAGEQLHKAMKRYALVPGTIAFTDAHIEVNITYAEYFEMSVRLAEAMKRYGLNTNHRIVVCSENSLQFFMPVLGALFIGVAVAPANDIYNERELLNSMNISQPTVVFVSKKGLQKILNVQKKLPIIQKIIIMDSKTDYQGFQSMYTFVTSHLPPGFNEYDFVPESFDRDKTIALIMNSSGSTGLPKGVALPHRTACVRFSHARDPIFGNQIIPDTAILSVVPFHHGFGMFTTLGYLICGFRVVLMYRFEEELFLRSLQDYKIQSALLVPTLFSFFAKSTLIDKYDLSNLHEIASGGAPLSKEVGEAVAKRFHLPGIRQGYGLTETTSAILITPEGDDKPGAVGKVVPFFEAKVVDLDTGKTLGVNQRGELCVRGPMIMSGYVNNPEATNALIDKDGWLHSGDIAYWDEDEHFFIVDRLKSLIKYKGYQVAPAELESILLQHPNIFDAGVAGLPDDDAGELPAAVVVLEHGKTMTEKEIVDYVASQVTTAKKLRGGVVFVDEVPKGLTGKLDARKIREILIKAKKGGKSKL

Which results are given for `CCCn1nc(C(=O)NNC(=O)c2cccc(S(=O)(=O)NC(C)C)c2)c2ccccc2c1=O`?
EC50 [1]: > 112 µM (not active); EC50 [2]: > 112 µM (not active)

With `COc1ccc(C(=O)NC2CCN(C(S)=NCc3ccco3)CC2)cc1` as the compound, how does the EC50 [3] read?
Its EC50 is > 260 µM (inactive).

What does the source list for `O=C(Nc1ccc(OCc2ccccc2Cl)cc1)c1cccnc1`?
EC50 [4]: 3.07 µM (active); EC50 [5]: > 38 µM (not active); EC50 [6]: > 150 µM (inactive); EC50 [7]: 0.909 µM (active); EC50 [8]: 0.485 µM (active)

Which results are given for `Cc1ccc(C(=O)CNc2cccc([N+](=O)[O-])c2)cc1`?
IC50 [9]: > 66 µM (inactive); IC50 [10]: > 66 µM (inactive)

Which results are given for `Cc1ccc(-c2nc(N/N=C/c3cccnc3)c3ccccc3n2)cc1`?
EC50 [1]: 0.798 µM (active); AC50 [11]: 6.77 µM (active); EC50 [2]: 1.02 µM (active)

With `COc1ccc(OC(=O)N2C/C(=C/c3ccccc3)C(=O)/C(=C\c3ccccc3)C2)cc1` as the compound, how does the CC50 [12] read?
Its CC50 is 9.88 µM (active).

With `Nc1cc(-c2ccc(OC(F)(F)F)cc2)nn1-c1ccc(Cl)c(Cl)c1` as the compound, how does the EC50 [13] read?
Its EC50 is 11.6 µM (active).

What about the EC50 [14] of the same compound?
The EC50 was 20 µM (inconclusive).

What about the AC50 [15] of the same compound?
The AC50 was 4.74 µM (active).

What about the EC50 [16] of the same compound?
The EC50 was 6.98 µM (active).

For `COc1ccc2o/c(=N\O)c(C(=O)Nc3ccc(C)cc3)cc2c1`, which CC50 [12] is on record?
The CC50 was > 25 µM (active).

And the EC50 [17]?
Its EC50 is 15.2 µM (active).

What about the EC50 [18] of the same compound?
Its EC50 is 14.1 µM (active).

And the EC50 [19]?
The EC50 was 16.6 µM (active).

For `CN(C)CCOC1(Cc2ccc(F)cc2)CCC(C(C)(C)C)CC1` (centres undefined), which CC50 [12] is on record?
Its CC50 is > 25 µM (active).

Which EC50 [20] does the source give for `CCn1cc(/C=N\NC(=O)c2ccc3c(c2)c(C)c(C)n3Cc2ccccc2)c(C)n1` here?
Its EC50 is > 150 µM (not active).

And the EC50 [21]?
The EC50 was > 150 µM (not active).

What about the EC50 [22] of the same compound?
The EC50 was > 150 µM (not active).

What about the EC50 [23] of the same compound?
Its EC50 is > 150 µM (not active).

For `Cn1c(=O)c2c(nc(SCCN3CCOCC3)n2Cc2ccccc2Cl)n(C)c1=O`, which EC50 [1] is on record?
The EC50 was > 112 µM (not active).

What about the EC50 [2] of the same compound?
Its EC50 is > 112 µM (not active).

With `COc1ccc(NC(=O)CSc2nnc(NC(C)=O)s2)c([N+](=O)[O-])c1` as the compound, how does the IC50 [9] read?
Its IC50 is > 66 µM (inactive).

And the IC50 [10]?
The IC50 was > 66 µM (inactive).

Which EC50 [13] does the source give for `CCCc1ccc(-c2cc(N)[nH]n2)cc1` here?
The EC50 was > 150 µM (not active).

And the EC50 [14]?
Its EC50 is > 150 µM (not active).

What about the AC50 [24] of the same compound?
Its AC50 is 11.3 µM (active).

What about the EC50 [16] of the same compound?
The EC50 was 30.9 µM (active).

Which EC50 [1] does the source give for `COCC(C)n1c(C)cc(C(=O)CN2C(=O)NC(Cc3c[nH]c4ccccc34)C2=O)c1C` (centres undefined) here?
Its EC50 is > 112 µM (not active).

What about the EC50 [2] of the same compound?
The EC50 was > 112 µM (not active).

For `COc1ccc(C2=CC(c3ccc(OC)c(OC)c3)c3c(c4ccccc4oc3=O)O2)cc1OC` (centres undefined), which EC50 [20] is on record?
The EC50 was 51.8 µM (active).

What about the EC50 [21] of the same compound?
Its EC50 is 27.7 µM (active).

What about the EC50 [25] of the same compound?
The EC50 was > 195 µM (not active).

What about the EC50 [22] of the same compound?
Its EC50 is 17.3 µM (active).

What about the EC50 [23] of the same compound?
Its EC50 is 5.11 µM (active).

With `C[C@@H]1CCCCO[C@@H](CN(C)C(=O)C2CCCCC2)[C@H](C)CN([C@H](C)CO)C(=O)c2cc(NS(=O)(=O)c3ccc(Cl)cc3)ccc2O1` as the compound, how does the AC50 [26] read?
Its AC50 is 4.99 µM (active).

Which EC50 [3] does the source give for `CCc1ccc(N(C(=O)c2snc(C(N)=O)c2N)C(C(=O)NCCC(C)C)c2c[nH]c3ccccc23)cc1` (centres undefined) here?
Its EC50 is 139 µM (active).
